What was measured:
[1] = target: MNK2 (Homo sapiens (Human), UniProt Q9HBH9); assay: MNK Biochemical Enzymatic Assay (ADP-Glo), MNK2 binding assay
Outline: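 Human MNK1 or MNK2 was preincubated with a 10-point, 1:3 serial dilution of compound for 15 min at 25 °C. Substrate was then added and the reaction ran 60 min at 25 °C. ADP formed was read by ADP-Glo luminescence, and IC50 came from non-linear regression.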

[2] = system: TMD-8 cell p-IF4E; assay: p-eIF4E Signaling Cellular Assay (CisBio HTRF) in TMD-8 cells; type: cell-based; settings: Homo sapiens, TMD8, 40 min, 40 min treatment
Experimental: p-eIF4E Signaling Cellular Assay. Phosphorylated eIF4E is assayed using the CisBio p-Eif4E HTRF assay kit. Reagents and equipment used in the assay are listed below, followed by the protocol.
Cell medium: RPMI 1640+10% FBS+1*PS, TMD-8 were cultured as recommended and assayed in exponential growth phase. • a) Plate 30 μL of cells in 384 white assay plate in appropriate medium and proper cell density (20 k/well) based on Optimization at 37° C. under 5% CO2 atmosphere • b) Dispense 90 nL of compounds diluted in DMSO and treat for 40 min at 37° C. under 5% CO2 atmosphere • c) Remove cell supernatant by flicking the plate • d) Add 16 μL of supplemented lysis buffer (1×) for 30 minutes at RT under shaking • e) Add 4 μL of premixed antibody solutions prepared in the detection buffer. Cover the plate with a plate sealer. Incubate 0/N at RT • f) Read the fluorescence emission at 665 nm and 620 nm on Envision • g) Data analysis • (1) Ratio […] signal is calculated for each well • (2) % Inhibition is calculated as follow:
% inhibition=100−(Signalcmpd-SignalAve_PC)/(SignalAve_VC-SignalAve_PC)×100. • (3) Calculate IC50 and Plot effect-dose curve of cmpds:
Calculate IC50 by fitting % Inhibition values and log of compound concentrations to nonlinear regression (dose response−variable slope) with Graphpad 8.0.
Y=Bottom+(Top−Bottom)/(1+10^((Log IC50−X)*Hill Slope)) • X: log of Inhibitor concentration; Y: % Inhibition.

Chain of MNK2 (Q9HBH9 whole entry): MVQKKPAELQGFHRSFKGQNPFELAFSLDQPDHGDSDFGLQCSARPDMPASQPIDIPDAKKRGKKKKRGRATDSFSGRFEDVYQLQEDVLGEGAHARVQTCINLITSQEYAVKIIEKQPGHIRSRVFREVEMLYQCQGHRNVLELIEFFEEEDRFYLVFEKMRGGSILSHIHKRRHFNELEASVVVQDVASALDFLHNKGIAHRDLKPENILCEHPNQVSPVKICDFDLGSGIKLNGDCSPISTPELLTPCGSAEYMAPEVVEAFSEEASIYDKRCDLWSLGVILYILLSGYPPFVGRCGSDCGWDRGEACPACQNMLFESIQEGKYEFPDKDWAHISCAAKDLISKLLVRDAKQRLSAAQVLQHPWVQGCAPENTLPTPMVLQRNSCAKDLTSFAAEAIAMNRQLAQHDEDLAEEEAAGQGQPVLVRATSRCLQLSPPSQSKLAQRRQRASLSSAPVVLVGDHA

Structure (SMILES) | IC50 [1] [nM] | IC50 [2] [nM]
COc1c(N)ncnc1Nc1cc2c(s1)C(=O)NC21CCCCC1 [Compound X-C, 2′-((6-amino-5-methoxypyrimidin-4-yl)amino)spiro[cyclohexane-1,4′-thieno[2,3-c]pyrrol]-6′(5′H)-one] | 0.1 to 10 | 10 to 100
O=C1NC2(CCCCC2)c2cc(Nc3ncnc4[nH]cnc34)sc21 [Compound XVII, 2′-((9H-Purin-6-yl)amino)spiro[cyclohexane-1,4′-thieno[2,3-c]pyrrol]-6′(5′H)-one] | 0.1 to 10 | 100 to 1000
O=C1NC2(CCCCC2)c2cc(Nc3ncnc4[nH]ccc34)sc21 [Compound XVII-A, 2′-((7H-pyrrolo[2,3-d]pyrimidin-4-yl)amino)spiro[cyclohexane-1,4′-thieno[2,3-c]pyrrol]-6′(5′H)-one] | 0.1 to 10 | 10 to 100
O=C1NC2(CCCCC2)c2cc(Nc3ncnc4[nH]ncc34)sc21 [Compound XVII-B, 2′-((1H-pyrazolo[3,4-d]pyrimidin-4-yl)amino)spiro[cyclohexane-1,4′-thieno[2,3-c]pyrrol]-6′(5′H)-one] | 0.1 to 10 | 100 to 1000
Cc1cc2c(Nc3cc4c(s3)C(=O)NC43CCCCC3)ncnc2[nH]1 [Compound XVII-C, 2′-((6-methyl-7H-pyrrolo[2,3-d]pyrimidin-4-yl)amino)spiro[cyclohexane-1,4′-thieno[2,3-c]pyrrol]-6′(5′H)-one] | 0.1 to 10 | 10 to 100
O=C1NC2(CCCCC2)c2cc(Nc3cc(NC(=O)C4CCCC4)ncn3)sc21 [Compound XX-D, N-(6-((6′-Oxo-5′,6′-dihydrospiro[cyclohexane-1,4′-thieno[2,3-c]pyrrol]-2′-yl)amino)pyrimidin-4-yl)cyclopentanecarboxamide] | 0.1 to 10 | 100 to 1000
O=C1NC2(CCCCC2)c2c1sc(Nc1cc(N[C@H]3CCOC3)ncn1)c2Cl [Compound XXI-A, (S)-3′-chloro-2′-((6-((tetrahydrofuran-3-yl)amino)pyrimidin-4-yl)amino)spiro[cyclohexane-1,4′-thieno[2,3-c]pyrrol]-6′(5′H)-one] | 0.1 to 10 | 10 to 100
O=C1NC2(CCCCC2)c2cc(Nc3cc(Nc4ccccn4)ncn3)sc21 [Compound XXIII-C, 2′-((6-(Pyridin-2-ylamino)pyrimidin-4-yl)amino)spiro[cyclohexane-1,4′-thieno[2,3-c]pyrrol]-6′(5′H)-one] | 0.1 to 10 | 10 to 100
O=C1NC2(CCCCC2)c2cc(Nc3cc(NCCO)ncn3)sc21 [Compound XXIII-J, 2′-((6-((2-Hydroxyethyl)amino)pyrimidin-4-yl)amino)spiro[cyclohexane-1,4′-thieno[2,3-c]pyrrol]-6′(5′H)-one] | 0.1 to 10 | 100 to 1000
O=C1NC2(CCCCC2)c2cc(Nc3cc(NC4CCCC4)ncn3)sc21 [Compound XXIII-N, 2′-((6-(Cyclopentylamino)pyrimidin-4-yl)amino)spiro[cyclohexane-1,4′-thieno[2,3-c]pyrrol]-6′(5′H)-one] | 10 to 100 | 10 to 100
Cn1ccc(Nc2cc(Nc3cc4c(s3)C(=O)NC43CCCCC3)ncn2)n1 [Compound XXIII-P, 2′-((6-((1-methyl-1H-pyrazol-3-yl)amino)pyrimidin-4-yl)amino)spiro[cyclohexane-1,4′-thieno[2,3-c]pyrrol]-6′(5′H)-one] | 0.1 to 10 | 10 to 100
CN1CCN(c2ccc(Nc3cc(Nc4cc5c(s4)C(=O)NC54CCCCC4)ncn3)nc2)CC1 [Compound XXIII-T, 2′-((6-((5-(4-methylpiperazin-1-yl)pyridin-2-yl)amino)pyrimidin-4-yl)amino)spiro[cyclohexane-1,4′-thieno[2,3-c]pyrrol]-6′(5′H)-one] | 0.1 to 10 | 10 to 100
O=C1NC2(CCCCC2)c2cc(Nc3cc(Nc4cc[nH]n4)ncn3)sc21 [Compound XXIII-U, 2′-((6-((1H-pyrazol-3-yl)amino)pyrimidin-4-yl)amino)spiro[cyclohexane-1,4′-thieno[2,3-c]pyrrol]-6′(5′H)-one] | 0.1 to 10 | 10 to 100

From patent publication US20240092799A1, “MNK INHIBITORS” (Hepagene Therapeutics (HK) Limited, priority 2020, published 2024)
